Data: patent US10689383B2, “Optionally fused heterocyclyl-substituted derivatives of pyrimidine useful for the treatment of inflammatory, metabolic, oncologic and autoimmune diseases” (NUEVOLUTION A/S, priority 2014, dated 2020)

Key:
[1] = biological target: T1, human RORγt (Ligand Binding Domain) (Homo sapiens, UniProt P51449); assay: Fluorescence Polarization (FP) Assay; details: Fluorescence Polarization (FP) Assay; values given as upper bounds of activity ranges; read-out: FP activity range
T1 construct: purchased Crelux (Planegg, Germany) batch no PC5032-1
T1 sequence (P51449 269-508 limits assumed): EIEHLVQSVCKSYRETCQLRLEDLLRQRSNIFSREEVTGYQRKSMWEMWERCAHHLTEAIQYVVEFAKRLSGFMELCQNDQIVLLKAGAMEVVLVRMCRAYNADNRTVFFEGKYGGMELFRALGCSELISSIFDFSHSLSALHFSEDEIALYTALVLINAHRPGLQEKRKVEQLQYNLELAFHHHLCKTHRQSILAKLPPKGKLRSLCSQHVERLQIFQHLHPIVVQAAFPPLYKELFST
How it was run: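 Binding to the ligand pocket followed by fluorescence polarization with a TAMRA-tagged RORγt ligand probe of 910 g/mole. Negative control wells received DMSO only.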

[2] = biological target: T2, yeast Gal4-DNA binding domain fused to the ligand binding domain of human RORγ (Homo sapiens, UniProt P51449); assay: RORγ Reporter Assay (Gal4); format: cell-based; details: values given as lower bounds of ranges; for Gal4 activity range @ 1 μM (% inhibition): RORγ Reporter Assay (Gal4) at 1 μM; for Gal4 activity range @ 0.1 μM (% inhibition): RORγ Reporter Assay (Gal4) at 0.1 μM
T2 construct: host or cells: HEK293t
T2 sequence (P51449 269-508 limits assumed): T1 sequence (P51449 269-508 limits assumed)
How it was run: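 Compound at final 1,000 or 100 nM (0.1% DMSO, triplicate) was added to the transfected HEK293t cells carrying a Gal4-UAS luciferase reporter for 24 h at 37 °C, 10% charcoal-stripped FBS. Activity reduction expressed as percent of vehicle-only luciferase signal.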

Compound | IC50 [1] [µM] | Gal4 activity range @ 1 μM (% inhibition) [2] [% inhibition] | Gal4 activity range @ 0.1 μM (% inhibition) [2] [% inhibition]
CN1CC(CNc2ncnc(N3CCCC3c3ccc(C(F)(F)F)cc3)c2F)CC1=O (stereo not shown) [Example 109, 4-[[[5-fluoro-6-[2-[4-(trifluoromethyl)phenyl]pyrrolidin-1-yl]pyrimidin-4-yl]amino]methyl]-1-methyl-pyrrolidin-2-one] | < 2 | >20 | 
Cc1ccc(CNc2ncnc(N3CC(C)CC3c3ccc(C(F)(F)F)cc3)c2F)cn1 (stereo not shown) [Example 211, 5-fluoro-N-[(6-methyl-3-pyridyl)methyl]-6-[4-methyl-2-[4-(trifluoromethyl)phenyl]pyrrolidin-1-yl]pyrimidin-4-amine] | < 1 | >50 | >0
CS(=O)(=O)N1CCC(CNc2ncnc(N3CCOC[C@@H]3c3ccc(C(F)(F)F)cc3)c2F)C1 (stereo partly drawn) [Example 327, 5-fluoro-N-[(1-methylsulfonylpyrrolidin-3-yl)methyl]-6-[(3S)-3-[4-(trifluoromethyl)phenyl]morpholin-4-yl]pyrimidin-4-amine] | < 1 | >80 | >20
O=S(=O)(Nc1ccc(CNc2ncnc(N3CCOC[C@@H]3c3ccc(C(F)(F)F)cc3)c2F)cc1)C(F)(F)F [Example 291, 1,1,1-trifluoro-N-[4-[[[5-fluoro-6-[(3S)-3-[4-(trifluoromethyl)phenyl]morpholin-4-yl]pyrimidin-4-yl]amino]methyl]phenyl] methanesulfonamide] | < 1 | >50 | >0
CC(C)(O)Cc1ccc(CNc2ncnc(N3CCCC3c3ccc(C(F)(F)F)cc3)c2F)cc1 (stereo not shown) [Example 98, 1-[4-[[[5-fluoro-6-[2-[4-(trifluoromethyl)phenyl]pyrrolidin-1-yl]pyrimidin-4-yl]amino]methyl]phenyl]-2-methyl-propan-2-ol] | < 1 | >80 | >20
CN(C)C(=O)C1CCC(CNc2ncnc(N3CCCC3c3ccc(C(F)(F)F)cc3)c2F)O1 (stereo not shown) [Example 110, 5-[[[5-fluoro-6-[2-[4-(trifluoromethyl)phenyl]pyrrolidin-1-yl]pyrimidin-4-yl]amino]methyl]-N,N-dimethyl-tetrahydrofuran-2-carboxamide] | < 10 | >0 | 
CC(C)(C)C[C@@H](Nc1ncnc(N2CCOCC2c2ccc(OC(F)(F)F)cc2)c1F)C(N)=O (stereo partly drawn) [Example 68, (2R)-2-[[5-fluoro-6-[3-[4-(trifluoromethoxy)phenyl]morpholin-4-yl]pyrimidin-4-yl]amino]-4,4-dimethyl-pentanamide] | < 2 | >80 | 
OC1(CNc2ncnc(N3CCOC[C@@H]3c3ccc(C(F)(F)F)cc3)c2F)CCOC1 (stereo partly drawn) [Example 238, 3-[[[5-fluoro-6-[(3S)-3-[4-(trifluoromethyl)phenyl]morpholin-4-yl]pyrimidin-4-yl]amino]methyl]tetrahydrofuran-3-ol] | < 10 | >50 | >0
NC(=O)Cc1ccc(Cn2ccc3c(N4CCOC[C@@H]4c4ccc(C(F)(F)F)cn4)ncnc32)cc1 [Example 328, 2-[4-[[4-[(3S)-3-[5-(trifluoromethyl)-2-pyridyl]morpholin-4-yl]pyrrolo[2,3-d]pyrimidin-7-yl]methyl]phenyl]acetamide] | < 0.5 | >80 | >80
COc1ccc(CNc2ncnc(N3CCCC3c3ccc(C(F)(F)F)cc3)c2F)cn1 (stereo not shown) [Example 114, 5-fluoro-N-[(6-methoxy-3-pyridyl)methyl]-6-[2-[4-(trifluoromethyl)phenyl]pyrrolidin-1-yl]pyrimidin-4-amine] | < 1 | >80 | >20
NC(=O)Cc1ccc(CNc2ncnc(N3CCOC[C@@H]3c3ccc(OC(F)(F)F)cc3)c2F)cc1 [Example 230, 2-[4-[[[5-fluoro-6-[(3S)-3-[4-(trifluoromethoxy)phenyl]morpholin-4-yl]pyrimidin-4-yl]amino]methyl]phenyl]acetamide] | < 0.5 | >80 | >50
O=C1CN(c2ccc(CNc3ncnc(N4CCCC4c4ccc(C(F)(F)F)cc4)c3F)cc2)CCN1 (stereo not shown) [Example 60, 4-[4-[[[5-fluoro-6-[2-[4-(trifluoromethyl)phenyl]pyrrolidin-1-yl]pyrimidin-4-yl]amino]methyl]phenyl]piperazin-2-one] | < 2 | >20 | 
NC(=O)Cc1ccc(CNc2ncnc(N3CCCC3c3ccc4c(c3)OCO4)c2F)cc1 (stereo not shown) [Example 299, 2-[4-[[[6-[2-(1,3-benzodioxol-5-yl)pyrrolidin-1-yl]-5-fluoro-pyrimidin-4-yl]amino]methyl]phenyl]acetamide] | < 1 | >80 | >0
CC(C)(C)C[C@@H](Nc1ccnc(N2CCCC2c2ccc(C(F)(F)F)cc2)c1F)C(N)=O (stereo partly drawn) [Example 39, (2R)-2-[[3-fluoro-2-[2-[4-(trifluoromethyl)phenyl]pyrrolidin-1-yl]-4-pyridyl]amino]-4,4-dimethyl-pentanamide] | < 10 | >20 | 
CC1(CNc2ncnc(N3CCC[C@@H]3c3ccc(C(F)(F)F)cc3)c2F)CCCS1 (stereo partly drawn) [Example 201, 5-fluoro-N-[(2-methyltetrahydrothiophen-2-yl)methyl]-6-[(2R)-2-[4-(trifluoromethyl)phenyl]pyrrolidin-1-yl]pyrimidin-4-amine] | < 0.5 | >80 | >0
CC(C)(C)C[C@@H](Nc1ncnc(N2CCCC2c2ccc(OC(C)(C)C)cc2)c1F)C(N)=O (stereo partly drawn) [Example 43, (2R)-2-[[6-[2-(4-tert-butoxyphenyl)pyrrolidin-1-yl]-5-fluoro-pyrimidin-4-yl]amino]-4,4-dimethyl-pentanamide] | < 1 | >80 | 

The next lines start with the values.

IC50 [1] [µM] | Gal4 activity range @ 1 μM (% inhibition) [2] [% inhibition] | Gal4 activity range @ 0.1 μM (% inhibition) [2] [% inhibition] | Compound
< 0.5 | >80 | >20 | OCC1(CNc2ncnc(N3CCC[C@@H]3c3ccc(C(F)(F)F)cc3)c2F)COC1 [Example 228, [3-[[[5-fluoro-6-[(2R)-2-[4-(trifluoromethyl)phenyl]pyrrolidin-1-yl]pyrimidin-4-yl]amino]methyl]oxetan-3-yl]methano1]
< 0.5 | >80 | >50 | N#CC1(CNc2ncnc(N3CCOC[C@@H]3c3ccc(C(F)(F)F)cc3)c2F)CCOCC1 [Example 257, 4-[[[5-fluoro-6-[(3S)-3-[4-(trifluoromethyl)phenyl]morpholin-4-yl]pyrimidin-4-yl]amino]methyl]tetrahydropyran-4-carbonitrile]
< 0.5 | >80 | >80 | NC(=O)Cc1ccc(CNc2ncnc(N3CCOC[C@@H]3c3ccc(OC(F)(F)F)cc3F)c2F)cc1 [Example 258, 2-[4-[[[5-fluoro-6-[(3S)-3-[2-fluoro-4-(trifluoromethoxy)phenyl]morpholin-4-yl]pyrimidin-4-yl]amino]methyl]phenyl]acetamide]
< 0.5 |  | >0 | COCC1(CNc2ncnc(N3CCC[C@@H]3c3ccc(C(F)(F)F)cc3)c2F)CCC1 [Example 188, 5-fluoro-N-[[1-(methoxymethyl)cyclobutyl]methyl]-6-[(2R)-2-[4-(trifluoromethyl)phenyl]pyrrolidin-1-yl]pyrimidin-4-amine]
< 0.5 | >80 | >50 | NC(=O)Cc1ccc(CNc2ncnc(N3CCCC3c3cccc(Cl)c3)c2F)cc1 (stereo not shown) [Example 306, 2-[4-[[[6-[2-(3-chlorophenyl)pyrrolidin-1-yl]-5-fluoro-pyrimidin-4-yl]amino]methyl]phenyl]acetamide]
< 0.5 |  | >50 | OC1(CNc2ncnc(N3CCC[C@@H]3c3ccc(C(F)(F)F)cc3)c2F)CCSC1 (stereo partly drawn) [Example 165, 3-[[[5-fluoro-6-[(2R)-2-[4-(trifluoromethyl)phenyl]pyrrolidin-1-yl]pyrimidin-4-yl]amino]methyl]tetrahydrothiophen-3-ol]
< 0.5 | >80 | >80 | COCCNS(=O)(=O)c1ccc(CNc2ncnc(N3CCC[C@@H]3c3ccc(C(F)(F)F)cc3)c2F)cc1 [Example 320, 4-[[[5-fluoro-6-[(2R)-2-[4-(trifluoromethyl)phenyl]pyrrolidin-1-yl]pyrimidin-4-yl]amino]methyl]-N-(2-methoxyethyl)benzenesulfonamide]
